Read-outs that look alike come from different tables or passages of the source.
Assays:
recombinant human CK2 = target: T1, recombinant human CK2 (Homo sapiens, UniProt P68400); test: cell-free CK2 assay; type: biochemical
T1 construct: purchased Upstate
Method: Modulatory activity of compounds described herein was assessed in vitro in cell-free CK2 assays by the following method.
Test compounds in aqueous solution were added at a volume of 10 microliters, to a reaction mixture comprising 10 microliters Assay Dilution Buffer (ADB; 20 mM MOPS, pH 7.2, 25 mM beta-glycerolphosphate, 5 mM EGTA, 1 mM sodium orthovanadate and 1 mM dithiothreitol), 10 microliters of substrate peptide (RRRDDDSDDD, dissolved in ADB at a concentration of 1 mM), 10 microliters of recombinant human CK2 (25 ng dissolved in ADB; Upstate). Reactions were initiated by the addition of 10 microliters of ATP Solution (90% 75 mM MgCl2, 75 micromolar ATP dissolved in ADB; 10% [γ-^33P]ATP (stock 1 mCi/100 μl; 3000 Ci/mmol (Perkin Elmer) and maintained for 10 minutes at 30 degrees C. The reactions were quenched with 100 microliters of 0.75% phosphoric acid, then transferred to and filtered through a phosphocellulose filter plate (Millipore). After washing each well 5 times with 0.75% phosphoric acid, the plate was dried under vacuum for 5 min and, following the addition of 15 ul of scintilation fluid to each well, the residual radioactivity was measured using a Wallac luminescence counter.

recombinant human PIM2 = recombinant human PIM2 (Homo sapiens, UniProt Q9P1W9); test: PIM-2 kinase assay; type: biochemical
Chain of recombinant human PIM2 (Q9P1W9 whole entry): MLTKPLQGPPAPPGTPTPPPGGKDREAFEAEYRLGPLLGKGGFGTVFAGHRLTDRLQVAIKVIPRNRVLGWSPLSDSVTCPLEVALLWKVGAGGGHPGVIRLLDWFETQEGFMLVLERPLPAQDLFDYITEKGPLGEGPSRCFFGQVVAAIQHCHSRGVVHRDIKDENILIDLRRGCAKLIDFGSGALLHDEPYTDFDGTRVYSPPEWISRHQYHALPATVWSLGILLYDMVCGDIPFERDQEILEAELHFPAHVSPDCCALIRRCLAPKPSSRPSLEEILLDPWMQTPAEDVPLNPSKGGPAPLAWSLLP
Method: Test compounds dissolved and diluted in DMSO (2 μl) were added to a reaction mixture comprising 10 μl of 5× Reaction Buffer (40 mM MOPS pH 7.0, 5 mM EDTA), 10 μl of recombinant human PIM2 solution (4 ng PIM-2 dissolved in dilution buffer (20 mM MOPS pH 7.0; EDTA 1 mM; 5% Glycerol; 0.01% Brij 35; […]; […] 2-mercaptoethanol; 1 mg/ml BSA)) and 8 ul of water. Reactions were initiated by the addition of 10 ul of ATP Solution ([…] (15 mM MgCl2; 75 uM ATP) 1% ([γ-33P]ATP: Stock 1 mCi/100 μl; 3000 Ci/mmol (Perkin Elmer)) and 10 ul of substrate peptide solution (RSRSSYPAGT, dissolved in water at a concentration of 1 mM), Reactions were maintained for 10 min at 30° C. The reactions were quenched with 100 ul of 0.75% Phosphoric acid, then transferred to and filtered through a Phosphocellulose filter plate (Millipore, MSPH-N6B-50). After washing each well 4 times with 0.75% Phosphoric acid, scintillation fluid (20 uL) was added to each well and the residual radioactivity was measured using a Wallac luminescence counter.

recombinant PIM-1 = recombinant PIM-1 (Homo sapiens, UniProt P11309); test: PIM-1 kinase assay; type: biochemical; conditions: for inhibition at 0.5 µM: 500 nM compound, read-out: PIM1: % inh 500 nM
Chain of recombinant PIM-1 (P11309 whole entry): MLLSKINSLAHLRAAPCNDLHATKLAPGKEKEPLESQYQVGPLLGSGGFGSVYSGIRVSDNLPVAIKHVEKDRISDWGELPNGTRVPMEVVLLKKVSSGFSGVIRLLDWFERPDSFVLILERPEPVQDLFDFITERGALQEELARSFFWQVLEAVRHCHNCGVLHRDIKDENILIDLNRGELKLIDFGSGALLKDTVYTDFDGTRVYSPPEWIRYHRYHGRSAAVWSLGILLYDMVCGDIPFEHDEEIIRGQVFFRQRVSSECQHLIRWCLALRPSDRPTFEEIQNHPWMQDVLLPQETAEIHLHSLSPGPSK
Method: The following procedure was used to assay the PIM-1 kinase activity of compounds of the invention. Other methods for assaying PIM-1 and other PIM kinases, as well as methods to assay for activity against various kinases known in the art.
In a final reaction volume of 50 ul, recombinant PIM-1 (1 ng) was incubated with 12 mM MOPS pH 7.0, 0.4 mM EDTA, glycerol 1%, brij 35 0.002%, 2-mercaptoethanol 0.02%, BSA 0.2 mg/ml, 100 uM KKRNRTLTK, 10 mM MgAcetate, 15 uM ATP, [γ-^33P-ATP] (specific activity approx. 500 cpm/pmol), DMSO 4% and test inhibitor compound at the required concentration. The reaction was initiated by the addition of the Magnesium ATP mixture. After 40 min incubation at 23° C., the reactions were quenched by the addition of 100 ul 0.75% Phosphoric acid, and the labeled peptide collected by filtration through a phosphocellulose filter plate. The plate was washed 4 times with 0.075% phosphoric acid (100 ul per well) and then, after the addition of scintillation fluid (20 ul per well), the counts were measured by a scintillation counter.

[1] = system: K-562 human chronic myelogenous leukemia (CML) cells; test: Alamar Blue cell proliferation assay, K-562; type: cell-based; conditions: K562, Table 4
Method: (§1) A representative cell-proliferation assay protocol using Alamar Blue dye (stored at 4° C., use 20 ul per well) is described hereafter.
(§2) a. Split and trypsinize cells.
(§3) b. Count cells using hemocytometer.
(§4) c. Plate 4,000-5,000 cells per well in 100 μl of medium and seed into a 96-well plate according to the following plate layout. Add cell culture medium only to wells B10 to B12. Wells B1 to B9 have cells but no compound added.
(§5) d. Add 100 μl of 2× drug dilution to each well in a concentration shown in the plate layout above. At the same time, add 100 μl of media into the control wells (wells B10 to B12). Total volume is 200 μl/well.
(§6) e. Incubate four (4) days at 37° C., 5% CO2 in a humidified incubator.
(§7) f. Add 20 μl Alamar Blue reagent to each well.
(§8) g. Incubate for four (4) hours at 37° C., 5% CO2 in a humidified incubator.
(§9) h. Record fluorescence at an excitation wavelength of 544 nm and emission wavelength of 590 nm using a microplate reader.
(§10) In the assays, cells are cultured with a test compound for approximately four days, the dye is then added to the cells and fluorescence of […] dye is detected after approximately four hours. Different types of cells can be utilized in the assays (e.g., HCT-116 human colorectal carcinoma cells, PC-3 human prostatic cancer cells, MDA-MB231 human breast cancer cells, K-562 human chronic myelogenous leukemia (CML) cells, MiaPaca human pancreatic carcinoma cells, MV-4 human acute myeloid leukemia cells, and BxPC3 human pancreatic adenocarcinoma cells).

MV-4-11 = test: Alamar Blue cell proliferation assay, MV-4-11; type: cell-based; conditions: Homo sapiens, MV4-11; Table 4
Method: as §1, §2, §3, §4, §5, §6, §7, §8, §9, §10

[2] = system: MiaPaca human pancreatic carcinoma cells; test: Alamar Blue cell proliferation assay, MiaPaCa; type: cell-based; conditions: MIA PaCa-2
Method: as §1, §2, §3, §4, §5, §6, §7, §8, §9, §10

[3] = system: PC-3 human prostatic cancer cells; test: Alamar Blue cell proliferation assay, PC3; type: cell-based
Method: as §1, §2, §3, §4, §5, §6, §7, §8, §9, §10

[4] = 15 μM ATP, read-out: PIM1: IC50 (15 μM ATP)

T1 sequence (P68400 whole entry): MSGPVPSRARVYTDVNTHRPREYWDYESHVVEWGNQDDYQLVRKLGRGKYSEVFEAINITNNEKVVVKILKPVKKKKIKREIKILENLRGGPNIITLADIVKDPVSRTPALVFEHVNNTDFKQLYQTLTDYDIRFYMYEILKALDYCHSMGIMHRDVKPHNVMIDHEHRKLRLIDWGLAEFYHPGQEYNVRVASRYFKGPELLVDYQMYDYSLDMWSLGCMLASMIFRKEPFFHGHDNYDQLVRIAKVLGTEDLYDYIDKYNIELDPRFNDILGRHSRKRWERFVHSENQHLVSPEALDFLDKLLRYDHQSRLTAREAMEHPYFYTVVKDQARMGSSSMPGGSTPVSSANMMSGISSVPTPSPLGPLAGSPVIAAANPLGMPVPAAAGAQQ
T1 sequence (P67870 whole entry partner): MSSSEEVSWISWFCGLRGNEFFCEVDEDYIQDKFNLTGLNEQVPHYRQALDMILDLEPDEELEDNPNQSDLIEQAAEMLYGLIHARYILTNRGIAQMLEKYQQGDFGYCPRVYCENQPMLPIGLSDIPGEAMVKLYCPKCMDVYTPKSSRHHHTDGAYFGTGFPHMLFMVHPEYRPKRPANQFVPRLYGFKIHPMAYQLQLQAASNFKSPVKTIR

Row | SMILES | IC50 (recombinant human CK2) [µM] | IC50 (recombinant human PIM2) [µM] | IC50 (recombinant PIM-1; Table 5, read-out: PIM1 IC50) [µM] | IC50 [1] [µM] | IC50 (MV-4-11) [µM] | IC50 [2] [µM] | IC50 [3] [µM] | inhibition at 0.5 µM (recombinant PIM-1) [%] | IC50 (recombinant PIM-1; [4]) [µM]
1 | FC(F)(F)CCNc1nc2c(-c3nnc[nH]3)cccc2n2cccc12 | < 5 | < 1 | < 0.1 |  |  |  |  |  | 
2 | Cc1ccccc1Nc1nc2cc(-c3nnn[nH]3)ccc2n2cccc12 |  |  |  | > 10 | > 10 | > 10 | > 10 | 52.4 | 0.676
3 | Brc1cccc(Nc2nc3c(-c4nnc[nH]4)cccc3n3cccc23)c1 | < 0.1 | < 0.1 | < 0.1 |  |  |  |  |  | 
4 | CN(c1ccccc1F)c1nc2cc(-c3nnn[nH]3)ccc2n2cccc12 |  |  |  | > 10 | > 10 | > 10 | > 10 | 51.4 | 0.774
5 | O=c1[nH]c2c(-c3nnc[nH]3)cccc2n2cccc12 | < 5 | > 2.5 | > 2.5 |  |  |  |  |  | 
6 | c1cc(-c2nnc[nH]2)c2nc(NCC3CC3)c3cccn3c2c1 | < 5 | < 1 | < 0.1 |  |  |  |  |  | 
7 | CN(c1cccc(Cl)c1)c1nc2cc(-c3nnn[nH]3)ccc2n2cccc12 |  |  |  | > 10 | > 10 | > 10 | > 10 | 6.59 | 
8 | CCOC(=O)c1cccc2c1nc(Nc1ccccc1F)c1cncn12 | < 5 | > 2.5 |  |  |  |  |  |  | 
9 | Clc1cccc(-c2nc3cc(-c4nnn[nH]4)ccc3n3cccc23)c1 |  |  |  | > 10 | > 10 | > 10 | > 10 | 25 | 
10 | O=C(O)c1ccc2c(c1)nc(Nc1ccc3ncccc3c1)c1cccn12 |  |  |  | > 10 | > 10 | > 10 |  | 43.2 | 0.239
11 | CC(C)(C)OC(=O)OCc1cccc2c1nc(N(C(=O)OC(C)(C)C)c1ccccc1F)c1cccn12 | > 5 | > 2.5 | > 2.5 |  |  |  |  |  | 
12 | CCOC(=O)c1cccc2c1nc(N(C(=O)OC(C)(C)C)c1ccccc1F)c1cccn12 | > 5 | > 2.5 | > 2.5 |  |  |  |  |  | 
13 | Clc1cccc(Nc2nc3cc(-c4nnn[nH]4)ccc3n3cccc23)c1 |  |  |  | > 10 | 4.98 | 9.37 | > 10 | 77.4 | 0.15
14 | CN(C)CCNc1nc2c(-c3nnc[nH]3)cccc2n2cccc12 | > 5 | > 2.5 | > 2.5 |  |  |  |  |  | 
15 | COc1ccc(Sc2nc3c(-c4nnc[nH]4)cccc3n3cccc23)cc1 | < 0.1 | < 5 | < 0.1 |  |  |  |  |  | 
16 | CCOC(=O)c1cccc2c1[nH]c(=O)c1cncn12 | < 5 | > 2.5 |  |  |  |  |  |  | 
17 | O=C(O)c1cccc2c1[nH]c(=O)c1cccn12 | < 5 | > 2.5 | > 2.5 |  |  |  |  |  | 
18 | Fc1cc(F)cc(Nc2nc3cc(-c4nnn[nH]4)ccc3n3cccc23)c1 |  |  |  | > 10 | 7.77 | > 10 | > 10 | 63.8 | 0.514
19 | Fc1cccc(Nc2nc3cc(-c4nnn[nH]4)ccc3n3cccc23)c1 |  |  |  | > 10 | > 10 | > 10 | > 10 | 70 | 0.29

Row | SMILES | IC50 (recombinant human CK2) [µM] | IC50 (recombinant human PIM2) [µM] | IC50 (recombinant PIM-1; Table 5, read-out: PIM1 IC50) [µM] | IC50 [1] [µM] | IC50 (MV-4-11) [µM] | IC50 [2] [µM] | IC50 [3] [µM] | inhibition at 0.5 µM (recombinant PIM-1) [%] | IC50 (recombinant PIM-1; [4]) [µM]
20 | Cc1ccccc1Nc1nc2cc(C(=O)O)ccc2n2cccc12 |  |  |  | > 10 | > 10 | > 10 | > 10 | 43.8 | 
21 | OCc1cccc2c1nc(Nc1ccccc1F)c1cccn12 | > 5 | < 5 | > 2.5 |  |  |  |  |  | 
22 | O=C(O)c1ccc2c(c1)nc(Nc1cccc(F)c1)c1cccn12 |  |  |  | > 10 | > 10 | > 10 | > 10 | 78.1 | 0.156
23 | CCOC(=O)c1cccc2c1[nH]c(=O)c1cccn12 | > 5 | > 2.5 | > 2.5 |  |  |  |  |  | 
24 | O=C(O)c1ccc2c(c1)nc(Nc1cccc(Cl)c1)c1cccn12 |  |  |  | > 10 | 2.93 | 8.92 | > 10 | 95.4 | 0.095
25 | N#Cc1cccc(Nc2nc3cc(C(=O)O)ccc3n3cccc23)c1 |  |  |  | > 10 | > 10 | > 10 | > 10 | 92.3 | 0.115
26 | NC(=O)c1cccc2c1[nH]c(=O)c1cccn12 | > 5 | > 2.5 | > 2.5 |  |  |  |  |  | 
27 | CCOC(=O)c1cccc2c1[nH]c(=O)c1nccn12 | > 5 | > 2.5 |  |  |  |  |  |  | 
28 | O=C(O)c1ccc2c(c1)nc(Nc1cc(F)cc(Cl)c1)c1cccn12 |  |  |  | > 10 | 8.55 | > 10 | > 10 | 83.9 | 0.119
29 | NC(=O)c1cccc2c1nc(Nc1ccccc1F)c1cncn12 | < 0.1 | < 0.1 |  |  |  |  |  |  | 
30 | c1cc(-c2nnc[nH]2)c2nc(Nc3nccs3)c3cccn3c2c1 | < 5 | < 5 | < 5 |  |  |  |  |  | 
31 | O=C(O)c1cccc2c1nc(Nc1ccccc1F)c1cncn12 | < 1 | > 2.5 |  |  |  |  |  |  | 
32 | NC(=O)c1cccc2c1nc(Nc1ccccc1Cl)c1cccn12 | < 1 | < 1 | < 0.1 |  |  |  |  |  | 
33 | CN(c1ccccc1)c1nc2cc(-c3nnn[nH]3)ccc2n2cccc12 |  |  |  | > 10 | > 10 | > 10 | > 10 | 15.3 | 
34 | CCOC(=O)c1cccc2c1nc(Nc1ccccc1F)c1cccn12 | > 5 | > 2.5 | > 2.5 |  |  |  |  |  | 
35 | c1cc(-c2nnc[nH]2)c2nc(NC3CC3)c3cccn3c2c1 | < 1 | < 1 | < 0.1 |  |  |  |  |  | 
36 | Fc1ccc(Nc2nc3c(-c4nnc[nH]4)cccc3n3cccc23)c(Cl)c1 | < 1 | < 0.1 | < 0.1 |  |  |  |  |  | 
37 | NC(=O)c1cc(F)cc(Nc2nc3cc(C(=O)O)ccc3n3cccc23)c1 |  |  |  | > 10 | > 10 | > 10 |  | 69.3 | 0.229
38 | O=C(O)c1cccc2c1nc(Nc1ccccc1F)c1cccn12 | < 1 | < 1 | < 1 |  |  |  |  |  | 

— US20100298302A1, “NOVEL PROTEIN KINASE MODULATORS” (priority 2009, published 2010)
